Measurements: US7163960B2, “Treatment and prevention of inflammatory disorders” (Monsanto Technology L.L.C., priority 2002, dated 2007)
Marks after values point to notes of the source that are not given here.

Legend:
Format in all cases: in vivo, human
IL-1β = IL-1β synthesis in LPS-treated whole blood; details: for IL-1β synthesis in LPS-treated whole blood: mean ± SD
Description: (§1) Following a 3-week run-in period, subjects ingested either ALA, SDA, EPA supplied as ethyl esters in capsules. Intakes were 0.75 g/day for 3 weeks followed by 1.5 g/day for the subsequent 3 weeks.
(§2) Blood (4 mL) was added to heparinised tubes, bacterial lipopolysaccharide (LPS) was added (200 ng/mL), and the mixture was incubated at 37° C., 5% CO2, for 24 h. Plasma was collected and assayed for prostaglandin E2 (PGE2) by radioimmunoassay (RIA), interleukin-1β (IL-1β) and tumor necrosis factor-α (TNF-α) by ELISA, as described in Mantzioris et al., supra.

TNF-α = TNF-α synthesis in LPS-treated whole blood; details: for TNF-α synthesis in LPS-treated whole blood: mean ± SD
Description: as §1, §2

prostaglandin E2 (PGE2) = test: PGE2 synthesis in LPS-stimulated whole blood; details: for PGE2 synthesis in LPS-stimulated whole blood: mean ± SD
Description: as §1, §2

[1] = Fatty acid analysis of blood cell phospholipids and plasma lipid fractions after ingestion of test fatty acids; details: both, human, in vivo
Excerpt: 45 males and post-menopausal female—19–65 years of age, normolipidemic, and with a body mass index (BMI) in the range 20 to 30, were recruited. Exclusion criteria included bleeding disorders, hypertension, inflammatory disorders, active gastrointestinal diseases, chronic use of low dose aspirin, consumption of restaurant or takeaway evening meals more than twice per week, use of dietary supplements rich in n-3 or n-6 fatty acids, habitual consumption of more than 1 fish meal per month, and plasma phospholipid EPA+DHA levels>7.9% of total fatty acids (level achieved in the study group was 4.9±1.0% of total fatty acids).
as §1
At each visit, 36 mL of blood was taken by venepuncture after an overnight fast. Blood was aliquoted into various tubes for the following procedures.
Blood (20 mL) was added to tubes containing 4 mL 4.5% EDTA in water and 4 mL—6% dextran in normal saline, pH 7.0. Erythrocytes were allowed to sediment under gravity at 37° C. for 30 min. The leucocyte-rich plasma was layered onto LYMPHOPREP, density 1.077 (Nycomed Pharma, Oslo) and centrifuged at 110 g for 10 min to separate leucocytes from the platelets, which were removed. The gradient was further centrifuged at 200 g for 20 min to separate the neutrophils from mononuclear cells, which were removed.
Samples were processed for fatty acid analysis as described in Mantzioris et al., Am. J. Clin. Nutr., 72:42–8 (2000). Plasma, washed platelet and mononuclear cell pellets were stored at −80° C. Erythrocyte pellets were treated fresh with chloroform:isopropanol (2:1) and the lipid extracts stored at 4° C. Plasma, platelet and mononuclear cell pellets were extracted with chloroform:methanol. The cellular and plasma lipid extracts were fractionated by thin-layer chromatography. For the cellular extracts, the phospholipid fraction was retained and for the plasma extracts, the phospholipid, cholesterol ester, and triglyceride fractions were retained. These were transesterified by methanolysis (1% H2SO4 in methanol at 70° C. for 3 h). Fatty acid methyl esters were separated and quantified with a HEWLETT-PACKARD 6890 gas chromatograph equipped with a 50 m capillary column coated with BPX-70 (0.25 μm film thickness; SGE Pty Ltd, Victoria, Australia) (see Mantzioris et al., supra). Fatty acid standards were obtained from NuChek Prep Inc. (Elysian, Minn.) and included stearidonic acid obtained from Sigma Aldrich Pty Ltd. (Castle Hill, NSW, Australia). All organic solvents contained butylated hydroxy anisole (0.005%) as an antioxidant.

[2] = Week 3 (after 0.75 g/day for 3 weeks)
[3] = Week 6 (after 1.5 g/day for 3 weeks)
[4] = Week −3 (start of run-in, before dosing)

Compound: CC/C=C\C/C=C\C/C=C\CCCCCCCC(=O)O [ALA, α-linolenic acid]
- Effect on LPS-stimulated IL-1β synthesis (IL-1β; 0.75 g/day or 1.5 g/day (either dose)): no effect
- IL-1β synthesis in LPS-treated whole blood (IL-1β; Week 0 (baseline)): 96.9 ± 30.9 ng/mL
- IL-1β synthesis in LPS-treated whole blood (IL-1β; [2]): 87.3 ± 29.9 ng/mL
- IL-1β synthesis in LPS-treated whole blood (IL-1β; [3]): 83.3 ± 24.0 ng/mL
- IL-1β synthesis in LPS-treated whole blood (IL-1β; [4]): 97.9 ± 27.4 ng/mL
- Effect on LPS-stimulated TNF synthesis (TNF-α; 1.5 g/day): statistically significant decreases
- TNF-α synthesis in LPS-treated whole blood (TNF-α; Week 0 (baseline)): 36.8 ± 17.4^a ng/mL
- TNF-α synthesis in LPS-treated whole blood (TNF-α; [2]): 32.7 ± 11.9^a ng/mL
- TNF-α synthesis in LPS-treated whole blood (TNF-α; [3]): 25.3 ± 7.2^b ng/mL
- TNF-α synthesis in LPS-treated whole blood (TNF-α; [4]): 30.9 ± 13.1^a ng/mL
- Effect on LPS-stimulated PGE2 synthesis (prostaglandin E2 (PGE2); 1.5 g/day): no change
- Effect on LPS-stimulated PGE2 synthesis (prostaglandin E2 (PGE2); Visit 3, following ingestion of 0.75 g): statistically significant increases
- PGE2 synthesis in LPS-stimulated whole blood (prostaglandin E2 (PGE2); Week 0 (baseline)): 4.63 ± 2.21^a ng/mL
- PGE2 synthesis in LPS-stimulated whole blood (prostaglandin E2 (PGE2); [2]): 6.25 ± 3.00^b ng/mL
- PGE2 synthesis in LPS-stimulated whole blood (prostaglandin E2 (PGE2); [3]): 4.30 ± 1.37^a ng/mL
- PGE2 synthesis in LPS-stimulated whole blood (prostaglandin E2 (PGE2); [4]): 4.00 ± 1.65^a ng/mL
- DHA (% of total fatty acids), Erythrocyte phospholipid ([1]; 0 week): 4.61 ± 0.71^b % of total fatty acids
- DHA (% of total fatty acids), Plasma phospholipid ([1]; 0 weeks): 3.64 ± 0.65 % of total fatty acids
- DPA (% of total fatty acids), Erythrocyte phospholipid ([1]; 0 weeks): 3:08 ± 0:35 % of total fatty acids
- DPA (% of total fatty acids), Plasma phospholipid ([1]; 0 weeks): 1.39 ± 0.26^ab % of total fatty acids
- EPA (% of total fatty acids), Monocyte ([1]; 0 weeks): 0.57 (0.11)a % of total fatty acids
- EPA (% of total fatty acids), Plasma CE ([1]; 0 weeks): 1.16 (0.33)ab % of total fatty acids
- EPA (% of total fatty acids), Plasma Phospholipid ([1]; 0 weeks): 1.16 (0.31)ab % of total fatty acids
- EPA (% of total fatty acids), Plasma TG ([1]; 0 weeks): 0.27 (0.12) % of total fatty acids
- EPA (% of total fatty acids), Platelet ([1]; 0 weeks): 0.48 (0.11)a % of total fatty acids
- EPA (% of total fatty acids), Red Blood ([1]; 0 weeks): 0.88 (0.17)a % of total fatty acids
- EPA (% of total fatty acids), Monocyte ([1]; 3 weeks): 0.63 (0.14)a3 % of total fatty acids
- EPA (% of total fatty acids), Plasma CE ([1]; 3 weeks): 1.35 (0.58)bc2 % of total fatty acids
- EPA (% of total fatty acids), Plasma Phospholipid ([1]; 3 weeks): 1.33 (0.54)bc3 % of total fatty acids
- EPA (% of total fatty acids), Plasma TG ([1]; 3 weeks): 0.32 (0.13)2 % of total fatty acids
- EPA (% of total fatty acids), Platelet ([1]; 3 weeks): 0.55 (0.14)a2 % of total fatty acids
- EPA (% of total fatty acids), Red Blood ([1]; 3 weeks): 0.92 (0.23)a3 % of total fatty acids
- EPA (% of total fatty acids), Monocyte ([1]; 6 weeks): 0.81 (0.28)b2 % of total fatty acids
- EPA (% of total fatty acids), Plasma CE ([1]; 6 weeks): 1.41 (0.36)c3 % of total fatty acids
- EPA (% of total fatty acids), Plasma Phospholipid ([1]; 6 weeks): 1.43 (0.40)c3 % of total fatty acids
- EPA (% of total fatty acids), Plasma TG ([1]; 6 weeks): 0.34 (0.16)2 % of total fatty acids
- EPA (% of total fatty acids), Platelet ([1]; 6 weeks): 0.64 (0.21)b2 % of total fatty acids
- EPA (% of total fatty acids), Red Blood ([1]; 6 weeks): 1.01 (0.18)b3 % of total fatty acids
- DHA (% of total fatty acids), Erythrocyte phospholipid ([1]; -3 week): 4.87 ± 0.74^a % of total fatty acids
- DHA (% of total fatty acids), Plasma phospholipid ([1]; -3 weeks): 3.70 ± 0.63 % of total fatty acids
- DPA (% of total fatty acids), Erythrocyte phospholipid ([1]; -3 weeks): 3.10 ± 0.40 % of total fatty acids
- DPA (% of total fatty acids), Plasma phospholipid ([1]; -3 weeks): 1.29 ± 0.18^a % of total fatty acids
- EPA (% of total fatty acids), Monocyte ([1]; -3 weeks): 0.67 (0.20)^a % of total fatty acids
- EPA (% of total fatty acids), Plasma CE ([1]; -3 weeks): 1.11 (0.26)^a % of total fatty acids
- EPA (% of total fatty acids), Plasma Phospholipid ([1]; -3 weeks): 1.07 (0.23)^a % of total fatty acids
- EPA (% of total fatty acids), Plasma TG ([1]; -3 weeks): 0.26 (0.08) % of total fatty acids
- EPA (% of total fatty acids), Platelet ([1]; -3 weeks): 0.44 (0.12)^a % of total fatty acids
- EPA (% of total fatty acids), Red Blood ([1]; -3 weeks): 0.88 (0:16)^a % of total fatty acids
